#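 How tested: cells in 96-well plates exposed to compound for 48 hours at five concentrations. TGI marks complete inhibition of growth.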
# Columns and labels:
# Test in all cases: inhibition of tumour cell growth, NCI panel, 48 h
# [1] = system: A549 NSCLC
# [2] = system: OVCAR-5 ovarian
# [3] = system: UACC-62 melanoma
# [4] = system: HT29 colon
# [5] = system: SNB-75 CNS
# [6] = system: ACHN renal
# [7] = system: HL-60(TB) leukemia
# [8] = system: CCRF-CEM leukemia
# [9] = system: NCI-H226 lung
# [10] = system: SN12C renal
# [11] = system: 786-0 renal
# [12] = system: OVCAR-3 ovarian
# [13] = system: DU-145 prostate
# [14] = system: BT-549 breast
# [15] = system: SK-MEL-2 melanoma
# [16] = system: MALME-3M melanoma
# [17] = system: U251 CNS
# [18] = system: HCT-116 colon
# [19] = system: SK-MEL-28 melanoma
# [20] = system: OVCAR-8 ovarian
# [21] = system: CAKI-1 renal
# [22] = system: K-562 leukemia
# [23] = system: HS 578T breast
# [24] = system: TK-10 renal
# [25] = system: COLO 205 colon
# [26] = system: SF-268 CNS
# [27] = system: MDA-N
# [28] = system: SF-539 CNS
# [29] = system: M14 melanoma
# [30] = system: RPMI-8226 leukemia
# [31] = system: NCI-H522 lung
# [32] = system: PC-3 prostate
# [33] = system: EKVX NSCLC
# [34] = system: MCF7 breast
# [35] = system: SF-295 CNS
# [36] = system: NCI-H23 lung
# [37] = system: LOX IMVI melanoma
# [38] = system: SK-OV-3 ovarian
# [39] = system: MDA-MB-435
# [40] = system: SNB-19 CNS
# [41] = system: OVCAR-4 ovarian
# [42] = system: SR leukemia
# [43] = system: RXF 393 renal
# [44] = system: SK-MEL-5 melanoma
# [45] = system: MOLT-4 leukemia
# [46] = system: UACC-257 melanoma
# [47] = system: NCI/ADR-RES ovarian
# [48] = system: HOP-62 NSCLC
# [49] = system: HCC-2998 colon
# [50] = system: SW-620 colon
# [51] = system: MDA-MB-231 breast
# [52] = system: KM12 colon
# [53] = system: HCT-15 colon
# [54] = system: IGROV1 ovarian
# [55] = system: T-47D breast
# [56] = system: NCI-H460 lung
# [57] = system: UO-31 renal
# [58] = system: HOP-92 NSCLC
# [59] = system: A498 renal
smiles,measurement,setting,value
CCCNC(=O)Cn1c(-c2ccccc2)cc2ccccc21,TGI,[1],> 100 µM
same,TGI,[2],> 100 µM
same,TGI,[3],> 100 µM
same,TGI,[4],> 100 µM
same,TGI,[5],> 100 µM
same,TGI,[6],> 100 µM
same,TGI,[7],> 100 µM
same,TGI,[8],> 100 µM
same,TGI,[9],> 100 µM
same,TGI,[10],> 100 µM
same,TGI,[11],> 100 µM
same,TGI,[12],> 100 µM
same,TGI,[13],> 100 µM
same,TGI,[14],> 100 µM
same,TGI,[15],> 100 µM
same,TGI,[16],> 100 µM
same,TGI,[17],> 100 µM
same,TGI,[18],70.4 µM
same,TGI,[19],> 100 µM
same,TGI,[20],> 100 µM
same,TGI,[21],> 100 µM
same,TGI,[22],> 100 µM
same,TGI,[23],> 100 µM
same,TGI,[24],> 100 µM
same,TGI,[25],> 100 µM
same,TGI,[26],> 100 µM
same,TGI,[27],> 100 µM
same,TGI,[28],> 100 µM
same,TGI,[29],> 100 µM
same,TGI,[30],> 100 µM
same,TGI,[31],60.1 µM
same,TGI,[32],> 100 µM
same,TGI,[33],> 100 µM
same,TGI,[34],> 100 µM
same,TGI,[35],> 100 µM
same,TGI,[36],> 100 µM
same,TGI,[37],> 100 µM
same,TGI,[38],> 100 µM
same,TGI,[39],> 100 µM
same,TGI,[40],> 100 µM
same,TGI,[41],> 100 µM
same,TGI,[42],> 100 µM
same,TGI,[43],57.3 µM
same,TGI,[44],> 100 µM
same,TGI,[45],> 100 µM
same,TGI,[46],> 100 µM
same,TGI,[47],> 100 µM
same,TGI,[48],> 100 µM
same,TGI,[49],> 100 µM
same,TGI,[50],> 100 µM
same,TGI,[51],> 100 µM
same,TGI,[52],> 100 µM
same,TGI,[53],> 100 µM
same,TGI,[54],> 100 µM
same,TGI,[55],> 100 µM
same,TGI,[56],> 100 µM
same,TGI,[57],> 100 µM
O=c1oc2ccccc2cc1-c1nc2ccccc2s1,TGI,[1],16.8 µM
same,TGI,[2],65.3 µM
same,TGI,[4],25.8 µM
same,TGI,[5],17.4 µM
same,TGI,[6],> 20.1 µM
same,TGI,[7],> 100 µM
same,TGI,[9],33 µM
same,TGI,[10],> 50.7 µM
same,TGI,[11],10.6 µM
same,TGI,[12],20.7 µM
same,TGI,[13],43.7 µM
same,TGI,[14],46.4 µM
same,TGI,[15],60.2 µM
same,TGI,[16],9.2 µM
same,TGI,[17],21.4 µM
same,TGI,[19],> 66 µM
same,TGI,[20],20.4 µM
same,TGI,[21],15.6 µM
same,TGI,[23],20.4 µM
same,TGI,[24],33.5 µM
same,TGI,[26],25.2 µM
same,TGI,[58],22.3 µM
same,TGI,[27],> 61.1 µM
same,TGI,[59],29.4 µM
same,TGI,[29],> 47.6 µM
same,TGI,[30],> 85 µM
same,TGI,[31],21.5 µM
same,TGI,[32],> 84.3 µM
same,TGI,[33],39.2 µM
same,TGI,[34],6.53 µM
same,TGI,[36],39.4 µM
same,TGI,[37],24.2 µM
same,TGI,[38],23.7 µM
same,TGI,[39],18.1 µM
same,TGI,[41],29 µM
same,TGI,[42],> 100 µM
same,TGI,[43],24.2 µM
same,TGI,[44],> 75.1 µM
same,TGI,[48],17.8 µM
same,TGI,[49],> 100 µM
same,TGI,[50],34.8 µM
same,TGI,[51],27.6 µM
same,TGI,[52],> 54.3 µM
same,TGI,[54],18.6 µM
same,TGI,[56],53 µM
same,TGI,[57],17.6 µM
Cc1ccc(Oc2cc(C)ccc2P(=O)(O)O)cc1,TGI,[1],> 100 µM
same,TGI,[3],> 100 µM
same,TGI,[5],> 100 µM
same,TGI,[7],> 100 µM
same,TGI,[8],> 100 µM
same,TGI,[9],> 100 µM
same,TGI,[10],> 100 µM
same,TGI,[11],> 100 µM
same,TGI,[12],> 100 µM
same,TGI,[13],> 100 µM
same,TGI,[14],> 100 µM
same,TGI,[15],> 100 µM
same,TGI,[18],> 100 µM
same,TGI,[19],> 100 µM
same,TGI,[20],> 100 µM
same,TGI,[21],> 100 µM
same,TGI,[22],> 100 µM
same,TGI,[23],> 100 µM
same,TGI,[24],> 100 µM
same,TGI,[25],> 100 µM
same,TGI,[26],> 100 µM
same,TGI,[58],> 100 µM
same,TGI,[27],> 100 µM
same,TGI,[28],> 100 µM
same,TGI,[29],> 100 µM
same,TGI,[30],> 100 µM
same,TGI,[31],> 100 µM
same,TGI,[32],> 100 µM
same,TGI,[33],> 100 µM
same,TGI,[34],> 100 µM
same,TGI,[35],> 100 µM
same,TGI,[36],> 100 µM
same,TGI,[37],> 100 µM
same,TGI,[38],> 100 µM
same,TGI,[39],> 100 µM
same,TGI,[40],> 100 µM
same,TGI,[43],> 100 µM
same,TGI,[44],> 100 µM
same,TGI,[45],> 100 µM
same,TGI,[46],> 100 µM
same,TGI,[48],> 100 µM
same,TGI,[49],> 100 µM
same,TGI,[50],> 100 µM
same,TGI,[51],> 100 µM
same,TGI,[52],> 100 µM
same,TGI,[53],> 100 µM
same,TGI,[54],> 100 µM
same,TGI,[57],> 100 µM
CCOC(=O)Cn1c(C)nc2nn(Cc3ccccc3)cc2c1=O,TGI,[1],> 100 µM
same,TGI,[2],> 100 µM
same,TGI,[3],> 100 µM
same,TGI,[4],> 100 µM
same,TGI,[6],> 100 µM
same,TGI,[8],> 100 µM
same,TGI,[9],> 100 µM
same,TGI,[10],> 100 µM
same,TGI,[11],> 100 µM
same,TGI,[12],> 100 µM
same,TGI,[13],> 100 µM
same,TGI,[14],> 100 µM
same,TGI,[15],> 100 µM
same,TGI,[16],> 100 µM
same,TGI,[17],> 100 µM
same,TGI,[18],> 100 µM
same,TGI,[19],> 100 µM
same,TGI,[20],> 100 µM
same,TGI,[22],> 100 µM
same,TGI,[23],> 100 µM
same,TGI,[24],> 100 µM
same,TGI,[26],> 100 µM
same,TGI,[58],> 100 µM
same,TGI,[27],> 100 µM
same,TGI,[59],> 100 µM
same,TGI,[28],> 100 µM
same,TGI,[29],> 100 µM
same,TGI,[32],> 100 µM
same,TGI,[33],> 100 µM
same,TGI,[34],> 100 µM
same,TGI,[35],> 100 µM
same,TGI,[36],> 100 µM
same,TGI,[38],> 100 µM
same,TGI,[39],> 100 µM
same,TGI,[40],> 100 µM
same,TGI,[43],> 100 µM
same,TGI,[44],> 100 µM
same,TGI,[45],> 100 µM
same,TGI,[47],> 100 µM
same,TGI,[48],> 100 µM
same,TGI,[49],> 100 µM
same,TGI,[50],> 100 µM
same,TGI,[51],> 100 µM
same,TGI,[52],> 100 µM
same,TGI,[53],> 100 µM
same,TGI,[54],> 100 µM
same,TGI,[55],> 100 µM
same,TGI,[56],> 100 µM
same,TGI,[57],> 100 µM

# From PubChem BioAssay (NCI)
